Test results reported in the supplement of paper PMC8837787.

test system: Saccharomyces cerevisiae ABC16-Green Monster; experiment: growth inhibition at single dose (up to 150 µM), below the 70% cut-off for dose-response; higher = more potent; details: 18 h; 30 °C; YPD
Procedure, shortened: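 The entry is percent growth inhibition of drug-sensitive S. cerevisiae ABC16-Green Monster cells. After overnight growth in YPD at 30 °C, cells were diluted to OD600 0.1–0.2 and exposed to each library compound at 150 µM in 200 µl per well, in biological duplicates with untreated cultures beside them, and OD600 was read at 0 h and after 18 h at 30 °C. Any compound under 70% in both replicates was not carried to dose-response.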

Row | SMILES | growth inhibition at single dose [%]
1 | Cc1ccc(S(=O)(=O)N2c3ccc(S(N)(=O)=O)cc3CC2C)cc1 (stereo not given) | < 70
2 | Cc1ccccc1-n1nnc(C(=O)Nc2cccc(Br)c2)c1N | < 70
3 | CCOc1ccc(C2N(C)c3ccccc3N2C)cc1 | < 70
4 | CCOc1ccc(-c2nc(NC(=O)CS(=O)(=O)c3ccccc3)sc2C)cc1 | < 70
5 | CCCN(CCC)CC(O)COc1ccccc1C(=O)Nc1ccccc1 (stereo not given) | < 70
6 | C[C@]12CC[C@H](O)C[C@H]1CCC1C2[C@H](O)C[C@]2(C)[C@@H](C3=CC(=O)OC3)CC[C@]12O (stereo not given in full) | < 70
7 | CCn1c2c(c(=N)c3c1CCC3)CCCC2 | < 70
8 | Cc1cc(O)nc(-n2nc(C)cc2C)n1 | < 70
9 | Nc1ccn(C2O[C@H](CO)[C@@H](O)[C@H]2O)c(=O)n1 (stereo not given in full) | < 70
10 | COc1ccc(OC)c(NCc2ccc3nc(N)nc(N)c3c2Cl)c1 | < 70
11 | Cc1ccc2nc(C)c(-c3ccn(Cc4ccccc4)n3)n2c1 | < 70
12 | O=C(C1CCN(c2nnnn2-c2ccccc2)CC1)N1CCc2ccccc2C1 | < 70
13 | Cn1nnnc1SCC(=O)Nc1ccc(C(=O)Nc2ncccc2O)cc1 | < 70
14 | O=C(Nc1ccc(N2CCN(c3ncccc3C(F)(F)F)CC2)nc1)c1cccs1 | < 70
15 | O=C(CSc1nnc(C2CC2)o1)NCCC1=CCCCC1 | < 70
16 | Cc1ccc(/C=C2\CCc3c2nc2ccccc2c3C(=O)OCC#N)cc1 | < 70
17 | CCc1ccc(C(=O)Nc2cccc(NC(=O)c3ccccc3C)c2)cc1 | < 70
18 | Cc1cccc(-c2nc(Nc3ccncn3)c3sccc3n2)n1 | < 70
19 | Cc1ccccc1OCCSc1nc2ccc(NC(=O)c3ccccc3)cc2s1 | < 70
20 | CCC(C)c1ccc(S(=O)(=O)N(Cc2ccc(C(=O)NC3CC3)cc2)C2CC2)cc1 (stereo not given) | < 70
21 | Cn1c(=O)c2cc(C(=O)NCCCN3CCCCCC3)sc2c2ccccc21 | < 70
22 | CC1=Nc2ccc(Cl)cc2C(c2ccccc2)N1CCNC(=O)CN(C)C (stereo not given) | < 70
23 | CC(C)c1cc(C(=O)Nc2nnc3ccccn23)c2cnn(C(C)C)c2n1 | < 70
24 | Oc1c(C(Nc2ccccn2)c2cccc(Oc3ccccc3)c2)ccc2cccnc12 (stereo not given) | < 70

Row | SMILES | growth inhibition at single dose [%]
25 | CCn1nc(C)c(Sc2nccn2C)c1C | < 70
26 | O=C(CCc1ccco1)NC1CCN(CC2(c3ccc(Cl)cc3)CCC2)CC1 | < 70
27 | COc1cc(C(=O)Nc2nc3c(cc4c5c(cccc53)CC4)s2)cc(OC)c1OC | < 70
28 | CCCCn1c(N)c(N(C)CC(=O)Nc2scc(-c3ccccc3)c2C(=O)OCC)c(=O)[nH]c1=O | < 70
29 | CN1c2ccccc2N(C)C1c1ccc2c(c1)OCO2 | < 70
30 | CC(C)(C)c1nc(-c2ccc(N)cc2)no1 | < 70
31 | COc1ccc(C(=O)NC(c2ccc(Cl)cc2Cl)c2cc(Cl)c3cccnc3c2O)cc1 (stereo not given) | < 70
32 | Nc1nccnc1C(=O)Nc1ccc(C23CC4CC(CC(C4)C2)C3)cc1 | < 70
33 | CC(Oc1ccccc1)C(=O)Nc1nc(-c2ccccn2)cs1 (stereo not given) | < 70
34 | COc1cc(SC)ccc1C(=O)N1CCCC(C)C1 (stereo not given) | < 70
35 | CCOc1ccc(-c2nc(CC(=O)NCc3ccnc(OC)c3)cs2)cc1 | < 70
36 | N#CCc1c(C#N)c(N)nc(Nc2ccc(F)cc2F)c1C#N | < 70
37 | CCN(CC)C(=O)N1CCN(C)CC1 | < 70
38 | COc1ccc(-c2cn3c(C(=O)Nc4ccccc4Cl)c(-c4ccccc4)c4c3n2CCCC4)cc1 | < 70
39 | COc1cc(OC)c(N(C)C(=O)c2cc3c(s2)-c2ccccc2S(=O)(=O)C3)cc1Cl | < 70
40 | COCc1nn2c3c(nnc2c1-c1ccccc1)C(=O)CC(c1ccccc1)C3 (stereo not given) | < 70
41 | COc1ccc2nc(C)cc(Nc3ccc(Cl)cc3)c2c1 | < 70
42 | CN1CCN(c2ccc(NC(=O)c3csc4c3CCCC4)cc2)CC1 | < 70
43 | O=C(Nc1ccc(-c2nc3cc4ccccc4cc3[nH]2)cc1)c1cccc(Br)c1 | < 70
44 | CCCCCCn1c(=N)n(CC(O)COc2cccc(C)c2)c2ccccc21 (stereo not given) | < 70
45 | CC1CCCCN1C(=O)NCCc1coc(-c2ccc(F)cc2)n1 (stereo not given) | < 70
46 | Nc1nccc2ccc(Oc3ccncc3)cc12 | < 70
47 | Nc1cccnc1Nc1ccc(Cl)cc1 | < 70
48 | Cc1c(C)n(Cc2ccc(F)cc2)c2ccc(C(=O)NCc3ccco3)cc12 | < 70

Row | SMILES | growth inhibition at single dose [%]
49 | N#C/C(=N\Nc1cc(C(F)(F)F)ccc1OCC(F)(F)F)S(=O)(=O)c1ccccc1 | < 70
50 | CCCCNCC(O)(c1ccc(Cl)cc1)c1ccc(Cl)cc1 | < 70
51 | CCSc1nccc(-c2ccc3c(c2)CCC(C)(C)O3)n1 | < 70
52 | COc1ccc(NC(=O)c2ccn[nH]2)cc1NC(=O)c1ccc(Cl)cc1F | < 70
53 | COc1ccc2c(c1)OC(O)(C(F)(F)C(F)(F)F)CC2=O (stereo not given) | < 70
54 | CC1(COc2ccc(N3CCC(Oc4ccc(OC(F)(F)F)cc4)CC3)cc2)Cn2cc([N+](=O)[O-])nc2O1 (stereo not given) | < 70
55 | CCc1ccc(/C=C/c2ccc3cccc(O)c3n2)cc1 | < 70
56 | CC(C)NC(=O)NCc1ccc(C(=O)OCC(=O)C(C#N)=C2Nc3ccccc3N2)cc1 | < 70
57 | O=C(NCCc1c[nH]c2ccccc12)c1cc2ccccc2oc1=O | < 70
58 | CCn1c(CN2CCN(Cc3ccccc3)CC2)nc2cc(NC(=O)c3cccs3)ccc21 | < 70
59 | CC(C)Cc1ccc(C(C)c2nn3c(-c4ccco4)nnc3s2)cc1 (stereo not given) | < 70
60 | Cc1nn(C)c(C)c1CC(=O)Nc1ccc(-n2cnc3ccccc32)cc1 | < 70
61 | OCC1CCCN(c2nn3cc(-c4ccccc4)nc3s2)C1 (stereo not given) | < 70
62 | CCc1nc2ccc(Cl)cn2c1C(=O)NCc1ccc(N2CCC(c3ccc(OC(F)(F)F)cc3)CC2)cc1 | < 70
63 | COc1ccc(N(CCCN2C(=O)c3cccc4cccc(c34)C2=O)C(=O)c2ccccc2Cl)cc1 | < 70
64 | CCOc1ccccc1NC(=O)/C=C/c1nnc2c3ccccc3cnn12 | < 70
65 | CCCCc1c(CCC)c(=N)c2ccccc2n1C | < 70
66 | COc1ccc(C)cc1N1CC(C(=O)Nc2nc3ccccc3[nH]2)CC1=O (stereo not given) | < 70
67 | O=C(NC1CCCCC1)C(c1cccs1)N(CCc1ccccc1)C(=O)c1ccco1 (stereo not given) | < 70
68 | O=C(c1cc2ccccc2o1)N1CCN(Cc2ccc3c(c2)OCO3)CC1 | < 70
69 | Cc1cc(Nc2ccc(C(F)(F)F)cc2)n2ccnc2n1 | < 70
70 | O=C(NC1CCN(c2ccnc3ccccc23)C1)c1cccc(C(F)(F)F)c1 (stereo not given) | < 70
71 | CCOc1ccc(CN(C)CC(=O)NCCc2ccc(S(N)(=O)=O)cc2)cc1 | < 70
72 | COc1cccc(-c2cc3c(Nc4cccnc4)nccc3[nH]2)c1 | < 70

Row | SMILES | growth inhibition at single dose [%]
73 | Cc1nc(/C=C/C(=O)Nc2nc3ccccc3[nH]2)cs1 | < 70
74 | Cc1cc(Nc2cccc(C(F)(F)F)c2)n2ncc(C#N)c2n1 | < 70
75 | CCCc1cc(NCCN(C)C)n2ncc(-c3ccccc3)c2n1 | < 70
76 | CCCS(=O)(=O)c1cnc(C2COc3ccccc3O2)nc1N (stereo not given) | < 70
77 | COC(=O)c1c(C)[nH]c(C(=O)Nc2ccc(C)cn2)c1C | < 70
78 | FC(F)(F)c1cccc(Nc2nc(-c3ccccc3)nc3ncccc23)c1 | < 70
79 | CCCc1cc(O)c2c3c(c(=O)oc2c1)CN(C)CC3 | < 70
80 | O=C(Nc1ccc(N2CCN(Cc3ccccc3)CC2)cc1)c1cccs1 | < 70
81 | CCCCc1ccc(NC(=O)Nc2ccc(O[C@H]3CCCC[C@@H]3N(C)c3ccccc3)c(F)c2)cc1 | < 70
82 | CCOC(=O)Cc1ccc(NC(=O)c2ccc(C(C)(C)C)cc2)cc1 | < 70
83 | CC(C)(C)CC(C)(C)NCC(O)COc1ccc2c(c1)CCC2 (stereo not given) | < 70
84 | COc1cc(CNC(=O)Nc2nc3ccccc3s2)cc(OC)c1OC | < 70
85 | Cc1nnc(NC(=O)c2cn(-c3ccccc3)nc2-c2ccccc2C)o1 | < 70
86 | OC1CCCCC1C1(NC(=S)Nc2ccccc2)CCCCC1 (stereo not given) | < 70
87 | Cc1ccc2nc(Cl)c(CNCc3cccs3)cc2c1 | < 70
88 | COc1cccc(Nc2nc(-c3ccc(CCC(C)NC(C)=O)cc3)cs2)c1 (stereo not given) | < 70
89 | O=C(c1ccccc1F)N(Cc1ccc(Cl)cc1)c1ccccn1 | < 70
90 | Cc1cc(NC(=O)C(C)(C)C)sc1C(=O)Nc1ccccc1O | < 70
91 | CCOc1ccc(-n2cc(-c3ccccc3)c3c(SCc4cc(C)ccc4C)ncnc32)cc1 | < 70
92 | CCCCC(O)(c1ccc(Cl)cc1)C(CN1CCOCC1)c1ccc(Cl)cc1 (stereo not given) | < 70
93 | O=C(Nc1ccc(Oc2ccc3ccccc3c2)cc1)c1ccccc1 | < 70
94 | Cc1ccc(C(NCC(=O)Nc2sccc2C(N)=O)c2cccs2)cc1 (stereo not given) | < 70
95 | COc1ccc(C(O)(CCC(C)C)C(CN2CCOCC2)c2ccc(Cl)cc2)cc1 (stereo not given) | < 70
